From the OligoGym collection
HELM strings list units from the 5' end as sugar, base in round brackets, then linkage (d deoxyribose, r ribose, m 2'-O-methyl, p phosphodiester). Strings are as the collection lists them; they lack the last nucleoside at the 3' end of the tested compound. [moe] = 2'-O-(2-methoxyethyl) (MOE); [sp] = phosphorothioate linkage; [m5C] = 5-methylcytosine

Biological target: GFAP
Assay: mouse, dose not given
Conditions: ASO

Substance	3 h FOB score [score 0-7]
RNA1{[moe](G)[sp].[moe]([m5C])p.[moe](A)p.[moe](A)p.[moe]([m5C])[sp].d(A)[sp].d(G)[sp].d(T)[sp].d(T)[sp].d(T)[sp].d([m5C])[sp].d([m5C])[sp].d(A)[sp].d(T)[sp].d(A)[sp].[moe](A)p.[moe]([m5C])p.[moe](A)[sp].[moe](A)}$$$$ (last 3' nucleoside missing)	0
RNA1{[moe](A)[sp].[moe](T)p.[moe](T)p.[moe]([m5C])p.[moe](A)[sp].d([m5C])[sp].d(T)[sp].d(A)[sp].d(A)[sp].d(T)[sp].d(A)[sp].d(T)[sp].d(T)[sp].[moe](T)p.[moe](A)p.[moe](A)[sp].[moe]([m5C])}$$$$ (last 3' nucleoside missing)	0
RNA1{[moe](T)[sp].[moe]([m5C])p.[moe](A)p.[moe]([m5C])p.[moe](A)[sp].d(T)[sp].d(T)[sp].d([m5C])[sp].d(A)[sp].d([m5C])[sp].d(T)[sp].d(A)[sp].d(A)[sp].[moe](T)p.[moe](A)p.[moe](T)[sp].[moe](T)}$$$$ (last 3' nucleoside missing)	0
RNA1{[moe](A)[sp].[moe](G)p.[moe](T)p.[moe](G)p.[moe](T)p.[moe](G)p.d(T)[sp].d(A)[sp].d(T)[sp].d(T)[sp].d(A)[sp].d(G)[sp].d(G)[sp].d(A)[sp].d(T)[sp].d([m5C])[sp].[moe]([m5C])p.[moe]([m5C])[sp].[moe](A)}$$$$ (last 3' nucleoside missing)	4
RNA1{[moe](A)[sp].[moe](G)p.[moe]([m5C])p.[moe]([m5C])p.[moe](T)[sp].d(G)[sp].d(G)[sp].d(T)[sp].d(T)[sp].d(A)[sp].d(G)[sp].d([m5C])[sp].d([m5C])[sp].[moe](T)p.[moe](T)p.[moe](T)[sp].[moe]([m5C])}$$$$ (last 3' nucleoside missing)	4
RNA1{[moe](T)[sp].[moe](T)p.[moe](G)p.[moe](G)p.[moe](T)p.d(G)[sp].d([m5C])[sp].d(T)[sp].d(T)[sp].d(T)[sp].d(T)[sp].d(G)[sp].d([m5C])[sp].d([m5C])[sp].d([m5C])[sp].[moe]([m5C])p.[moe]([m5C])p.[moe](T)[sp].[moe](G)}$$$$ (last 3' nucleoside missing)	0
RNA1{[moe](G)[sp].[moe](G)p.[moe](A)p.[moe](G)p.[moe](A)[sp].d(A)[sp].d(G)[sp].d(G)[sp].d(T)[sp].d([m5C])[sp].d(T)[sp].d(G)[sp].d([m5C])[sp].d(A)[sp].d([m5C])[sp].[moe](G)p.[moe](G)p.[moe](G)[sp].[moe](A)}$$$$ (last 3' nucleoside missing)	7
RNA1{[moe](T)[sp].[moe](T)p.[moe](G)p.[moe](A)p.[moe](G)p.d(A)[sp].d(T)[sp].d(A)[sp].d(T)[sp].d([m5C])[sp].d(T)[sp].d(T)[sp].d(G)[sp].d(T)[sp].d(G)[sp].[moe](A)p.[moe]([m5C])p.[moe]([m5C])[sp].[moe](T)}$$$$ (last 3' nucleoside missing)	3
RNA1{[moe](T)[sp].[moe](G)p.[moe]([m5C])p.[moe](T)p.[moe](T)[sp].d(T)[sp].d(T)[sp].d(G)[sp].d([m5C])[sp].d([m5C])[sp].d([m5C])[sp].d([m5C])[sp].d([m5C])[sp].d(T)[sp].d([m5C])[sp].[moe](G)p.[moe](A)p.[moe](A)[sp].[moe](T)}$$$$ (last 3' nucleoside missing)	4
RNA1{[moe](A)[sp].[moe](A)p.[moe](G)p.[moe]([m5C])p.[moe](T)[sp].d([m5C])[sp].d(T)[sp].d(G)[sp].d(A)[sp].d(G)[sp].d([m5C])[sp].d(T)[sp].d(G)[sp].d(T)[sp].d(G)[sp].[moe](G)p.[moe](T)p.[moe](G)[sp].[moe](T)}$$$$ (last 3' nucleoside missing)	4
RNA1{[moe](T)[sp].[moe]([m5C])p.[moe](T)p.[moe](T)p.[moe](T)[sp].d(A)[sp].d(T)[sp].d(T)[sp].d(T)[sp].d(T)[sp].d(T)[sp].d([m5C])[sp].d([m5C])[sp].d(T)[sp].d([m5C])[sp].[moe](A)p.[moe](G)p.[moe]([m5C])[sp].[moe](G)}$$$$ (last 3' nucleoside missing)	1
RNA1{[moe](G)[sp].[moe](G)p.[moe]([m5C])p.[moe]([m5C])p.[moe](T)[sp].d(A)[sp].d([m5C])[sp].d(T)[sp].d(T)[sp].d([m5C])[sp].d(T)[sp].d([m5C])[sp].d(T)[sp].d(A)[sp].d(G)[sp].[moe](G)p.[moe](T)p.[moe](G)[sp].[moe](G)}$$$$ (last 3' nucleoside missing)	1
RNA1{[moe](A)[sp].[moe](T)p.[moe](G)p.[moe](G)p.[moe](G)[sp].d(T)[sp].d(G)[sp].d(A)[sp].d(G)[sp].d(G)[sp].d(T)[sp].d(G)[sp].d(A)[sp].d(G)[sp].d(G)[sp].[moe](A)p.[moe](G)p.[moe](T)[sp].[moe]([m5C])}$$$$ (last 3' nucleoside missing)	5
RNA1{[moe](T)[sp].[moe](T)p.[moe](G)p.[moe](G)p.d([m5C])[sp].d(A)[sp].d(G)[sp].d(T)[sp].d(A)[sp].d(T)[sp].d(T)[sp].d(A)[sp].d([m5C])[sp].d([m5C])[sp].[moe](T)p.[moe]([m5C])p.[moe](T)p.[moe](A)[sp].[moe]([m5C])}$$$$ (last 3' nucleoside missing)	1
RNA1{[moe](G)[sp].[moe](A)p.[moe](G)p.[moe](A)p.[moe]([m5C])[sp].d(A)[sp].d(T)[sp].d(G)[sp].d([m5C])[sp].d(A)[sp].d(T)[sp].d(A)[sp].d(T)[sp].d([m5C])[sp].d(T)[sp].[moe](A)p.[moe](G)p.[moe](T)[sp].[moe](G)}$$$$ (last 3' nucleoside missing)	6
RNA1{[moe]([m5C])[sp].[moe](A)p.[moe](G)p.[moe](G)p.[moe](G)[sp].d([m5C])[sp].d(T)[sp].d(A)[sp].d([m5C])[sp].d([m5C])[sp].d(T)[sp].d(T)[sp].d(G)[sp].d(T)[sp].d([m5C])[sp].[moe](T)p.[moe](G)p.[moe](T)[sp].[moe](G)}$$$$ (last 3' nucleoside missing)	6
RNA1{[moe](T)[sp].[moe](T)p.[moe](G)p.[moe](T)p.[moe]([m5C])[sp].d(T)[sp].d(T)[sp].d(T)[sp].d(A)[sp].d(T)[sp].d(T)[sp].d(T)[sp].d(T)[sp].[moe](T)p.[moe]([m5C])p.[moe]([m5C])[sp].[moe](T)}$$$$ (last 3' nucleoside missing)	0
RNA1{[moe](G)[sp].[moe](T)p.[moe]([m5C])p.[moe](A)p.[moe](G)[sp].d([m5C])[sp].d([m5C])[sp].d(T)[sp].d(G)[sp].d(G)[sp].d(T)[sp].d(T)[sp].d(A)[sp].d(G)[sp].d([m5C])[sp].[moe]([m5C])p.[moe](T)p.[moe](T)[sp].[moe](T)}$$$$ (last 3' nucleoside missing)	6
RNA1{[moe]([m5C])[sp].[moe](T)p.[moe]([m5C])p.[moe](A)p.[moe](G)p.[moe](T)p.d(T)[sp].d(T)[sp].d(T)[sp].d([m5C])[sp].d([m5C])[sp].d(T)[sp].d([m5C])[sp].d([m5C])[sp].d(A)[sp].d(G)[sp].[moe]([m5C])p.[moe](A)[sp].[moe](G)}$$$$ (last 3' nucleoside missing)	2
RNA1{[moe](A)[sp].[moe]([m5C])p.[moe](G)p.[moe](T)p.[moe]([m5C])p.[moe](A)p.d([m5C])[sp].d(A)[sp].d(T)[sp].d(T)[sp].d([m5C])[sp].d(A)[sp].d([m5C])[sp].d(T)[sp].d(A)[sp].d(A)[sp].[moe](T)p.[moe](A)[sp].[moe](T)}$$$$ (last 3' nucleoside missing)	0
RNA1{[moe]([m5C])[sp].[moe](A)p.[moe](G)p.[moe]([m5C])p.[moe](A)[sp].d(T)[sp].d(T)[sp].d(T)[sp].d(G)[sp].d(T)[sp].d([m5C])[sp].d(T)[sp].d(T)[sp].d(T)[sp].d(A)[sp].[moe](T)p.[moe](T)p.[moe](T)[sp].[moe](T)}$$$$ (last 3' nucleoside missing)	2
RNA1{[moe](T)[sp].[moe](T)p.[moe](T)p.[moe](G)p.d(G)[sp].d([m5C])[sp].d(A)[sp].d(G)[sp].d(T)[sp].d(A)[sp].d(T)[sp].d(T)[sp].d(A)[sp].d([m5C])[sp].[moe]([m5C])p.[moe](T)p.[moe]([m5C])p.[moe](T)[sp].[moe](A)}$$$$ (last 3' nucleoside missing)	1
RNA1{[moe](T)[sp].[moe](T)p.[moe](T)p.[moe](G)p.[moe](T)[sp].d([m5C])[sp].d(T)[sp].d(T)[sp].d(T)[sp].d(A)[sp].d(T)[sp].d(T)[sp].d(T)[sp].[moe](T)p.[moe](T)p.[moe]([m5C])[sp].[moe]([m5C])}$$$$ (last 3' nucleoside missing)	0
RNA1{[moe](G)[sp].[moe](T)p.[moe](A)p.[moe](T)p.[moe](T)[sp].d(A)[sp].d(G)[sp].d(G)[sp].d(A)[sp].d(T)[sp].d([m5C])[sp].d([m5C])[sp].d([m5C])[sp].[moe](A)p.[moe](T)p.[moe]([m5C])[sp].[moe](T)}$$$$ (last 3' nucleoside missing)	2
RNA1{[moe](A)[sp].[moe](T)p.[moe](T)p.[moe](T)p.[moe](G)[sp].d(T)[sp].d([m5C])[sp].d(T)[sp].d(T)[sp].d(T)[sp].d(A)[sp].d(T)[sp].d(T)[sp].d(T)[sp].d(T)[sp].[moe](T)p.[moe]([m5C])p.[moe]([m5C])[sp].[moe](T)}$$$$ (last 3' nucleoside missing)	0
RNA1{[moe](A)[sp].[moe]([m5C])p.[moe](T)p.[moe](A)p.d(T)[sp].d([m5C])[sp].d(T)[sp].d(A)[sp].d(G)[sp].d(G)[sp].d(A)[sp].d(T)[sp].d(T)[sp].d(T)[sp].[moe](G)p.[moe](G)p.[moe]([m5C])p.[moe](A)[sp].[moe](G)}$$$$ (last 3' nucleoside missing)	2
